According to patent publication US10538554B2, “Peptides and uses therefor as antiviral agents” (priority 2015, dated 2020):
Read-outs that look alike come from different tables or passages of the source. Bridge positions count the residues as written; N and C are the ends. Square brackets hold non-standard residues; d marks the D form. Peptide text beside a SMILES is read from it.

Legend:
H3N8 A/Miami/2/63 = settings: A/Miami/2/63, 48 h
[1] = test system: H1N1 A1/Malaysia/302/1954; settings: A1/Malaysia/302/1954, 48 h
H1N1 A/NY/18/2009 = settings: A/NY/18/2009, 48 h, 10 μM
H9N2 A/Iran/16/2000 = settings: 48 h
H3N2 A/HK/8/1968 = settings: A/HK/8/1968, 48 h

SMILES	% inhibition H3N2 (H3N2 A/HK/8/1968; 50 μM) [%]	% inhibition H3N8 (H3N8 A/Miami/2/63; 50 μM) [%]	% inhibition H1N1 ([1]; 50 μM) [%]	% inhibition H9N2 (H9N2 A/Iran/16/2000; 50 μM) [%]	% inhibition H3N8 (H3N8 A/Miami/2/63; 500 μM) [%]	also measured
CC[C@@H](C)[C@H]1NC(=O)[C@@H](Cc2ccccc2)NC(=O)[C@@H](CC(=O)O)NC(=O)[C@@H](Cc2ccccc2)NC(=O)[C@@H](Cc2c[nH]c3ccccc23)NC(=O)[C@@H]([C@H](C)O)NC(=O)[C@H](NC(=O)[C@H](CCCCN)NC(=O)[C@H](CCCCN)NC(=O)[C@H](CCCNC(=N)N)NC(=O)[C@@H](N)CCCNC(=N)N)CSSC[C@H](C(=O)O)NC(=O)[C@@H](CC(N)=O)NC1=O [PSP IV A3, H-RRKKctwfdfinc-OH] (H-RRKK[dC][dT][dW][dF][dD][dF][dI][dN][dC]-OH; disulfide 5-13)	–	–	–	–	–	% inhibition H3N8 (H3N8 A/Miami/2/63; 10 μM): 59%; % inhibition H1N1 ([1]; 10 μM): 49%; % Inhibition Pdm 2009 (H1N1 A/NY/18/2009): 72%; % inhibition H9N2 (H9N2 A/Iran/16/2000; 10 μM): 30%
CC[C@@H](C)[C@H]1NC(=O)[C@@H](Cc2ccccc2)NC(=O)CNC(=O)[C@@H](Cc2ccccc2)NC(=O)[C@@H](Cc2c[nH]c3ccccc23)NC(=O)[C@@H]([C@H](C)O)NC(=O)[C@H](NC(=O)[C@H](CCCCN)NC(=O)[C@H](CCCCN)NC(=O)[C@H](CCCNC(=N)N)NC(=O)[C@@H](N)CCCNC(=N)N)CSSC[C@H](C(=O)O)NC(=O)[C@@H](CC(N)=O)NC1=O [PSP IV A6, H-RRKKctwfGfinc-OH] (H-RRKK[dC][dT][dW][dF]G[dF][dI][dN][dC]-OH; disulfide 5-13)	–	–	–	–	–	% inhibition H3N8 (H3N8 A/Miami/2/63; 10 μM): 57%; % inhibition H1N1 ([1]; 10 μM): 59%; % Inhibition Pdm 2009 (H1N1 A/NY/18/2009): 47%; % inhibition H9N2 (H9N2 A/Iran/16/2000; 10 μM): 35%
CC[C@@H](C)[C@H]1NC(=O)[C@@H](Cc2ccccc2)NC(=O)[C@@H](CCC(=O)O)NC(=O)[C@@H](Cc2ccccc2)NC(=O)[C@@H](Cc2c[nH]c3ccccc23)NC(=O)[C@@H]([C@H](C)O)NC(=O)[C@H](NC(=O)[C@H](CCCCN)NC(=O)[C@H](CCCCN)NC(=O)[C@H](CCCNC(=N)N)NC(=O)[C@@H](N)CCCNC(=N)N)CSSC[C@H](C(=O)O)NC(=O)[C@@H](CC(N)=O)NC1=O [PSP IV A4, H-RRKKctwfefinc-OH] (H-RRKK[dC][dT][dW][dF][dE][dF][dI][dN][dC]-OH; disulfide 5-13)	–	–	–	–	–	% inhibition H3N8 (H3N8 A/Miami/2/63; 10 μM): 72%; % inhibition H1N1 ([1]; 10 μM): 62%; % Inhibition Pdm 2009 (H1N1 A/NY/18/2009): 45%; % inhibition H9N2 (H9N2 A/Iran/16/2000; 10 μM): 53%
CC[C@@H](C)[C@H]1NC(=O)[C@@H](Cc2ccccc2)NC(=O)[C@@H](CC(N)=O)NC(=O)[C@@H](Cc2ccccc2)NC(=O)[C@@H](Cc2c[nH]c3ccccc23)NC(=O)[C@@H]([C@H](C)O)NC(=O)[C@H](NC(=O)[C@H](CCCCN)NC(=O)[C@H](CCCCN)NC(=O)[C@H](CCCNC(=N)N)NC(=O)[C@@H](N)CCCNC(=N)N)CSSC[C@H](C(=O)O)NC(=O)[C@@H](CC(N)=O)NC1=O [PSP IV A12, H-RRKKctwfnfinc-OH] (H-RRKK[dC][dT][dW][dF][dN][dF][dI][dN][dC]-OH; disulfide 5-13)	–	–	–	–	–	% inhibition H3N8 (H3N8 A/Miami/2/63; 10 μM): 56%; % inhibition H1N1 ([1]; 10 μM): 67%; % Inhibition Pdm 2009 (H1N1 A/NY/18/2009): 60%; % inhibition H9N2 (H9N2 A/Iran/16/2000; 10 μM): 48%
CC[C@@H](C)[C@H]1NC(=O)[C@@H](Cc2ccccc2)NC(=O)[C@@H](CCCNC(=N)N)NC(=O)[C@@H](C)NC(=O)[C@@H](Cc2c[nH]c3ccccc23)NC(=O)[C@@H]([C@H](C)O)NC(=O)[C@H](NC(=O)[C@H](CCCCN)NC(=O)[C@H](CCCCN)NC(=O)[C@H](CCCNC(=N)N)NC(=O)[C@@H](N)CCCNC(=N)N)CSSC[C@H](C(=O)O)NC(=O)[C@@H](CC(N)=O)NC1=O [PSP III B1, H-RRKKctwarfinc-OH] (H-RRKK[dC][dT][dW][dA][dR][dF][dI][dN][dC]-OH; disulfide 5-13)	92	96	85	95	–	–
CC[C@@H](C)[C@H]1NC(=O)[C@@H](Cc2ccccc2)NC(=O)[C@@H](CCCNC(=N)N)NC(=O)[C@@H](CC(N)=O)NC(=O)[C@@H](Cc2c[nH]c3ccccc23)NC(=O)[C@@H]([C@H](C)O)NC(=O)[C@H](NC(=O)[C@H](CCCCN)NC(=O)[C@H](CCCCN)NC(=O)[C@H](CCCNC(=N)N)NC(=O)[C@@H](N)CCCNC(=N)N)CSSC[C@H](C(=O)O)NC(=O)[C@@H](CC(N)=O)NC1=O [PSP III B12, H-RRKKctwnrfinc-OH] (H-RRKK[dC][dT][dW][dN][dR][dF][dI][dN][dC]-OH; disulfide 5-13)	100	87	75	83	–	–
CC[C@@H](C)[C@H]1NC(=O)[C@@H](Cc2ccccc2)NC(=O)[C@@H](CCCNC(=N)N)NC(=O)[C@@H](CS)NC(=O)[C@@H](Cc2c[nH]c3ccccc23)NC(=O)[C@@H]([C@H](C)O)NC(=O)[C@H](NC(=O)[C@H](CCCCN)NC(=O)[C@H](CCCCN)NC(=O)[C@H](CCCNC(=N)N)NC(=O)[C@@H](N)CCCNC(=N)N)CSSC[C@H](C(=O)O)NC(=O)[C@@H](CC(N)=O)NC1=O [PSP III B2, H-RRKKctwcrfinc-OH] (H-RRKK[dC][dT][dW][dC][dR][dF][dI][dN][dC]-OH; disulfide 5-13)	96	87	71	74	–	–
C[C@H](O)[C@H]1NC(=O)[C@H](N)CSSC[C@H](C(=O)O)NC(=O)[C@@H](CC(N)=O)NC(=O)[C@@H](C)NC(=O)[C@@H](Cc2ccccc2)NC(=O)[C@@H](CCCNC(=N)N)NC(=O)[C@@H](CO)NC(=O)[C@@H](CCCCN)NC1=O [PSP 1, H-ctksrfanc-OH] (H-[dC][dT][dK][dS][dR][dF][dA][dN][dC]-OH; disulfide 1-9)	–	–	–	–	79.4	% inhibition H3N2 (H3N2 A/HK/8/1968; 500 μM): 70.4%; % inhibition H1N1 ([1]; 500 μM): 29.4%; % inhibition H9N2 (H9N2 A/Iran/16/2000; 500 μM): 36.4%
CC(C)C[C@H]1NC(=O)[C@@H](Cc2ccccc2)NC(=O)[C@@H](CCCNC(=N)N)NC(=O)[C@@H](CO)NC(=O)[C@@H](CCCCN)NC(=O)[C@@H]([C@H](C)O)NC(=O)[C@H](N)CSSC[C@H](C(=O)O)NC(=O)[C@@H](CC(N)=O)NC1=O [PSP 10, H-ctksrflnc-OH] (H-[dC][dT][dK][dS][dR][dF][dL][dN][dC]-OH; disulfide 1-9)	–	–	–	–	82.5	% inhibition H3N2 (H3N2 A/HK/8/1968; 500 μM): 95.5%; % inhibition H1N1 ([1]; 500 μM): 88.2%; % inhibition H9N2 (H9N2 A/Iran/16/2000; 500 μM): 50%
C[C@H](O)[C@H]1NC(=O)[C@H](N)CSSC[C@H](C(=O)O)NC(=O)[C@@H](CC(N)=O)NC(=O)[C@@H](Cc2c[nH]cn2)NC(=O)[C@@H](Cc2ccccc2)NC(=O)[C@@H](CCCNC(=N)N)NC(=O)[C@@H](CO)NC(=O)[C@@H](CCCCN)NC1=O [PSP 7, H-ctksrfhnc-OH] (H-[dC][dT][dK][dS][dR][dF][dH][dN][dC]-OH; disulfide 1-9)	–	–	–	–	76.3	% inhibition H3N2 (H3N2 A/HK/8/1968; 500 μM): 81.8%; % inhibition H1N1 ([1]; 500 μM): 23.5%; % inhibition H9N2 (H9N2 A/Iran/16/2000; 500 μM): 31.8%
CC[C@@H](C)[C@H]1NC(=O)[C@@H](Cc2ccccc2)NC(=O)[C@@H](CCCNC(=N)N)NC(=O)[C@@H](CO)NC(=O)[C@@H](Cc2c[nH]c3ccccc23)NC(=O)[C@@H]([C@H](C)O)NC(=O)[C@H](NC(=O)[C@H](CCCCN)NC(=O)[C@H](CCCCN)NC(=O)[C@H](CCCNC(=N)N)NC(=O)[C@@H](N)CCCNC(=N)N)CSSC[C@H](C(=O)O)NC(=O)[C@@H](CC(N)=O)NC1=O [PSP III B16, H-RRKKctwsrfinc-OH] (H-RRKK[dC][dT][dW][dS][dR][dF][dI][dN][dC]-OH; disulfide 5-13)	96	96	88	88	100	–
CC[C@@H](C)[C@H]1NC(=O)[C@@H](Cc2ccccc2)NC(=O)[C@@H](CCCNC(=N)N)NC(=O)[C@@H]([C@H](C)O)NC(=O)[C@@H](Cc2c[nH]c3ccccc23)NC(=O)[C@@H]([C@H](C)O)NC(=O)[C@H](NC(=O)[C@H](CCCCN)NC(=O)[C@H](CCCCN)NC(=O)[C@H](CCCNC(=N)N)NC(=O)[C@@H](N)CCCNC(=N)N)CSSC[C@H](C(=O)O)NC(=O)[C@@H](CC(N)=O)NC1=O [PSP III B17, H-RRKKctwtrfinc-OH] (H-RRKK[dC][dT][dW][dT][dR][dF][dI][dN][dC]-OH; disulfide 5-13)	96	96	79	86	–	–
CC[C@@H](C)[C@H]1NC(=O)[C@@H](Cc2ccccc2)NC(=O)[C@@H](CCCNC(=N)N)NC(=O)[C@H]2CCCN2C(=O)[C@@H](Cc2c[nH]c3ccccc23)NC(=O)[C@@H]([C@H](C)O)NC(=O)[C@H](NC(=O)[C@H](CCCCN)NC(=O)[C@H](CCCCN)NC(=O)[C@H](CCCNC(=N)N)NC(=O)[C@@H](N)CCCNC(=N)N)CSSC[C@H](C(=O)O)NC(=O)[C@@H](CC(N)=O)NC1=O [PSP III B13, H-RRKKctwprfinc-OH] (H-RRKK[dC][dT][dW][dP][dR][dF][dI][dN][dC]-OH; disulfide 5-13)	96	83	63	79	–	–
C[C@H](O)[C@H]1NC(=O)[C@H](N)CSSC[C@H](C(=O)O)NC(=O)[C@@H](CC(N)=O)NC(=O)[C@H]2CCCN2C(=O)[C@@H](Cc2ccccc2)NC(=O)[C@@H](CCCNC(=N)N)NC(=O)[C@@H](CO)NC(=O)[C@@H](CCCCN)NC1=O [PSP 13, H-ctksrfpnc-OH] (H-[dC][dT][dK][dS][dR][dF][dP][dN][dC]-OH; disulfide 1-9)	–	–	–	–	70.1	% inhibition H3N2 (H3N2 A/HK/8/1968; 500 μM): 29.6%; % inhibition H1N1 ([1]; 500 μM): 32.7%; % inhibition H9N2 (H9N2 A/Iran/16/2000; 500 μM): 18.2%
